Laboratory results from US9131696B2, “Herbicidal compositions comprising fluroxypyr and flumetsulam” (Dow AgroSciences LLC, priority 2012, dated 2015).

Assays:
Assay in all cases: Post-emergence field trial, visual weed control
Format in all cases: in vivo
[1] = system: AMARE = pigweed, redroot (Amaranthus retroflexus L.); settings: foliar
Procedure: (§1) Multiple post-emergence field trials were conducted under field conditions in the United States (Mississippi, South Dakota, and Minnesota) and Mexico. Trial sites were located in commercially grown fields of corn (ZEAMX), spring wheat (TRZAS), and winter wheat (TRZAW), using standard herbicide small plot research methodology. Post-emergence trial plot size varied from 2 to 3 meter (m)×4 to 5 m (width×length) with 4 replicates per treatment. The crops were grown using normal cultural practices for fertilization, seeding, watering, and maintenance to ensure good growth of the crops and the weeds.
(§2) All treatments in the post-emergence field trials were applied using a backpack compressed carbon dioxide (CO2) or nitrogen (N2) sprayer with flat fan nozzles calibrated to apply 94 to 250 liters per hectare (L/ha) spray volume at approximately 30-40 pounds per square inch (psi) nozzle pressure. Commercially available products of fluoroxypyr-meptyl (STARANE® 200, 200 grams acid equivalent per liter (g ae/L) and fluoroxypyr-meptyl EC 240 g ae/L) and flumetsulam (75WDG) were mixed in water at appropriate formulated product rates to achieve the desired rates based on a unit area of application (hectare) to achieve the desired rates as shown. […] Treatments were rated at 7 to 45 days after application (DAA) as compared to the untreated control plants. Visual weed control was scored on a scale of 0 to 100 percent where “0” corresponds to no injury and “100” corresponds to complete kill.
(§3) The trial sites had naturally occurring populations of weeds. The weed spectrum included, but was not limited to, AMARE, AMASS, CHEAL, CHEMU, IPOLA, KCHSC, POLCO, RUMCR, and SASKR.
(§4) A t-test (alpha=0.05) between Colby predictions and observed combinations was used to test for significant differences indicating synergy or antagonism using replicate data.
(§5) The following equation was used to calculate the expected activity of mixtures containing two active ingredients, A and B: Expected=A+B−(A×B/100) • A=observed efficacy of active ingredient A at the same concentration as used in the mixture; • B=observed efficacy of active ingredient B at the same concentration as used in the mixture.

[2] = system: AMASS = pigweed species (Amaranthus sp.); settings: foliar; for Flumetsulam % Visual Weed Control: flumetsulam 20 g ai/ha
Procedure: as §1, §2, §3, §4, §5

[3] = system: CHEAL = lambsquarters, common (Chenopodium album L.); settings: 30 days after application, foliar
Procedure: as §1, §2, §3, §4, §5

[4] = system: CHEMU = goosefoot, nettleleaf (Chenopodium murale L.); settings: 30 days after application, foliar
Procedure: as §1, §2, §3, §4, §5

[5] = system: IPOLA = morningglory, pitted (Ipomoea lacunosa L.); settings: 28 days after application, foliar
Procedure: as §1, §2, §3, §4, §5

[6] = system: KCHSC = kochia (Kochia scoparia (L.) Schrad.); settings: 28 days after application, foliar
Procedure: as §1, §2, §3, §4, §5

[7] = system: POLCO = buckwheat, wild (Polygonum convolvulus L.); settings: 28 days after application, foliar
Procedure: as §1, §2, §3, §4, §5

[8] = system: RUMCR = dock, curly (Rumex crispus L.); settings: 45 days after application, foliar
Procedure: as §1, §2, §3, §4, §5

[9] = system: SASKR = thistle, Russian (Salsola iberica Sennen & Pau); settings: 29 days after application, foliar
Procedure: as §1, §2, §3, §4, §5

In the case of `CCCCCCC(C)OC(=O)COc1nc(F)c(Cl)c(N)c1Cl` (racemic) [Fluroxypyr-Meptyl, (RS)-1-methylheptyl 4-amino-3,5-dichloro-6-fluoro-2-pyridyloxyacetate], the “Fluroxypyr-Meptyl % Visual Weed Control” value ([1]; 13 days after application, fluroxypyr-meptyl 110 g ae/ha) was 8%, the “Fluroxypyr-Meptyl % Visual Weed Control” value ([1]; 28 days after application, fluroxypyr-meptyl 35 g ae/ha) was 3% and the “Fluroxypyr-Meptyl % Visual Weed Control” value ([1]; 28 days after application, fluroxypyr-meptyl 110 g ae/ha) was 13%. The “Fluroxypyr-Meptyl % Visual Weed Control” value ([2]; 7 days after application, fluroxypyr-meptyl 75 g ae/ha) was 15%, the “Fluroxypyr-Meptyl % Visual Weed Control” value ([2]; 14 days after application, fluroxypyr-meptyl 50 g ae/ha) was 21% and the “Fluroxypyr-Meptyl % Visual Weed Control” value ([2]; 14 days after application, fluroxypyr-meptyl 75 g ae/ha) was 18%. The “Fluroxypyr-Meptyl % Visual Weed Control” value ([3]; fluroxypyr-meptyl 75 g ae/ha) was 20%, the “Fluroxypyr-Meptyl % Visual Weed Control” value ([4]; fluroxypyr-meptyl 50 g ae/ha) was 20% and the “Fluroxypyr-Meptyl % Visual Weed Control” value ([4]; fluroxypyr-meptyl 75 g ae/ha) was 28%. The “Fluroxypyr-Meptyl % Visual Weed Control” value ([5]; fluroxypyr-meptyl 70 g ae/ha) was 20%, the “Fluroxypyr-Meptyl % Visual Weed Control” value ([6]; fluroxypyr-meptyl 35 g ae/ha) was 30% and the “Fluroxypyr-Meptyl % Visual Weed Control” value ([7]; fluroxypyr-meptyl 35 g ae/ha) was 38%. For the same compound, the “Fluroxypyr-Meptyl % Visual Weed Control” value ([7]; fluroxypyr-meptyl 70 g ae/ha) was 64%, the “Fluroxypyr-Meptyl % Visual Weed Control” value ([8]; fluroxypyr-meptyl 75 g ae/ha) was 50% and the “Fluroxypyr-Meptyl % Visual Weed Control” value ([9]; fluroxypyr-meptyl 35 g ae/ha) was 23%.

For `Cc1ccn2nc(S(=O)(=O)Nc3c(F)cccc3F)nc2n1` [Flumetsulam, 2′,6′-difluoro-5-methyl[1,2,4]triazolo-[1,5-a]pyrimidine-2-sulfonanilide], the “Flumetsulam % Visual Weed Control” value ([1]; 13 days after application, flumetsulam 18 g ai/ha) was 81%, the “Flumetsulam % Visual Weed Control” value ([1]; 28 days after application, flumetsulam 35 g ai/ha) was 45% and the “Flumetsulam % Visual Weed Control” value ([2]; 7 days after application) was 79%. The “Flumetsulam % Visual Weed Control” value ([2]; 14 days after application) was 81%, the “Flumetsulam % Visual Weed Control” value ([3]; flumetsulam 15 g ai/ha) was 31% and the “Flumetsulam % Visual Weed Control” value ([3]; flumetsulam 30 g ai/ha) was 35%. The “Flumetsulam % Visual Weed Control” value ([3]; flumetsulam 60 g ai/ha) was 40%, the “Flumetsulam % Visual Weed Control” value ([4]; flumetsulam 15 g ai/ha) was 57% and the “Flumetsulam % Visual Weed Control” value ([4]; flumetsulam 30 g ai/ha) was 66%. For the same compound, the “Flumetsulam % Visual Weed Control” value ([4]; flumetsulam 60 g ai/ha) was 69%, the “Flumetsulam % Visual Weed Control” value ([5]; flumetsulam 18 g ai/ha) was 33% and the “Flumetsulam % Visual Weed Control” value ([6]; flumetsulam 35 g ai/ha) was 58%. For the same compound, the “Flumetsulam % Visual Weed Control” value ([7]; flumetsulam 18 g ai/ha) was 0%, the “Flumetsulam % Visual Weed Control” value ([7]; flumetsulam 35 g ai/ha) was 0% and the “Flumetsulam % Visual Weed Control” value ([8]; flumetsulam 15 g ai/ha) was 40%. For the same compound, the “Flumetsulam % Visual Weed Control” value ([8]; flumetsulam 30 g ai/ha) was 52%, the “Flumetsulam % Visual Weed Control” value ([8]; flumetsulam 60 g ai/ha) was 70% and the “Flumetsulam % Visual Weed Control” value ([9]; flumetsulam 9 g ai/ha) was 67%.
